Reference: paper PMC10233829 (ACS Omega, 2023)
Values after ≈ are worked out from the molar mass of the structure shown. Read-outs that look alike come from different tables or passages of the source.

How the values were obtained:
[1] = test system: K. pneumoniae 510; experiment: MIC, twofold microdilution, clinical strain; format: cell-based, Klebsiella pneumoniae; conditions: Klebsiella pneumoniae, 510; clinical strain, 18 h
[2] = test system: M. tuberculosis Spec. 192; experiment: Tuberculostatic activity, Microplate Alamar Blue Assay (MIC); format: cell-based; conditions: Mycobacterium tuberculosis, MABA, read-out: MIC M. tuberculosis Spec. 192 (sensitive to tuberculostatics)
[3] = test system: S. aureus 5595; experiment: MIC, twofold microdilution, clinical strain; format: cell-based; conditions: Staphylococcus aureus, 18 h
[4] = test system: S. epidermidis ATCC 12228; experiment: MIC, twofold microdilution, standard strain; format: cell-based; conditions: Staphylococcus epidermidis, ATCC12228, 18 h
[5] = test system: S. pasteuri KR 4358; experiment: MIC, twofold microdilution, clinical strain; format: cell-based; conditions: Staphylococcus pasteuri, KR4358, 18 h
[6] = test system: clinical bacterial strains; experiment: MIC, clinical isolates as groups of strains; format: cell-based; conditions: for fold more effective than CP: S. aureus 180 and 5595; for MIC: clinical strains, read-out: MIC against selected E. coli and E. cloacae strains
[7] = test system: P. aeruginosa 659; experiment: MIC, twofold microdilution, clinical strain; format: cell-based; conditions: Pseudomonas aeruginosa, 18 h
[8] = test system: E. coli 600; experiment: MIC, twofold microdilution, clinical strain; format: cell-based, Escherichia coli; conditions: Escherichia coli, 600, 18 h
[9] = test system: S. epidermidis KR4243/1; experiment: MIC, twofold microdilution, clinical strain; format: cell-based; conditions: Staphylococcus epidermidis, 18 h
[10] = test system: M. tuberculosis Spec 210; experiment: microbe, parasite or virus in culture; format: cell-based, Mycobacterium tuberculosis; conditions: M. tuberculosis Spec. 210
[11] = test system: P. aeruginosa ATCC 15442; experiment: MIC, twofold microdilution, standard strain; format: cell-based, Pseudomonas aeruginosa; conditions: Pseudomonas aeruginosa, ATCC15442; standard strain, 18 h
[12] = test system: M. tuberculosis H37Rv; experiment: Tuberculostatic activity, Microplate Alamar Blue Assay (MIC); format: cell-based, Mycobacterium tuberculosis; conditions: Mycobacterium tuberculosis, H37RV; MABA; read-out: MIC M. tuberculosis H37Rv
[13] = test system: P. aeruginosa 37; experiment: MIC, twofold microdilution, clinical strain; format: cell-based; conditions: Pseudomonas aeruginosa, 18 h
[14] = test system: S. aureus 180; experiment: MIC, twofold microdilution, clinical strain; format: cell-based; conditions: Staphylococcus aureus, 18 h
[15] = MTT assay, cytotoxic activity; format: cell-based; conditions: human, HaCaT cells (immortal keratinocytes); MTT, 72 h, normal cell line; read-out: IC50 HaCaT
Procedure: (§1) Cells were seeded in 6 mL medium in a tissue culture flask (50 mL) in a 37 °C/5% CO2 humidified incubator. […] MTT analysis was performed according to a previous study.[59] Untreated cells were used as controls. Cell absorbance results were inserted into the formula for the relative MTT level (%). It allows to calculate the viability of cells under the influence of the tested compounds. Cell viability was expressed as the percentage of MTT reduction in cells treated with tested compounds compared to the control sample. The relative MTT level was calculated using the formula [100%] = A/B × 100% where A—the test sample absorbance and B—the control sample absorbance.

[16] = test system: K. pneumoniae 28; experiment: MIC, twofold microdilution, clinical strain; format: cell-based; conditions: Klebsiella pneumoniae, 18 h
[17] = test system: Staphylococci (standard strains); experiment: MIC, standard Gram-positive strains as a panel; format: cell-based, S. aureus, S. epidermidis; conditions: read-out: MIC toward standard Staphylococci (range over strains)
[18] = test system: S. aureus ATCC 29213; experiment: MIC, twofold microdilution, standard strain; format: cell-based; conditions: Staphylococcus aureus, ATCC29213, 18 h
[19] = test system: E. coli ATCC 25922; experiment: MIC, twofold microdilution, standard strain; format: cell-based, Escherichia coli; conditions: Escherichia coli, ATCC25922; standard strain, 18 h
[20] = test system: S. epidermidis 5253; experiment: MIC, twofold microdilution, clinical strain; format: cell-based, Staphylococcus epidermidis; conditions: for MIC S. epidermidis 5253: 18 h; for MIC: Staphylococcus epidermidis, 5253, 18 h
[21] = test system: E. coli 951; experiment: MIC, twofold microdilution, clinical strain; format: cell-based; conditions: Escherichia coli, 18 h
[22] = test system: S. aureus NCTC 4163; experiment: MIC, twofold microdilution, standard strain; format: cell-based; conditions: Staphylococcus aureus, NCTC4163, 18 h
[23] = test system: S. aureus T5591; experiment: MIC, twofold microdilution, clinical strain; format: cell-based, Staphylococcus aureus; conditions: for MIC: Staphylococcus aureus, T5591, 18 h
[24] = test system: S. epidermidis ATCC 35984; experiment: MIC, twofold microdilution, standard strain; format: cell-based; conditions: Staphylococcus epidermidis, ATCC35984, 18 h
[25] = test system: E. cloacae 8; experiment: MIC, twofold microdilution, clinical strain; format: cell-based, Escherichia cloacae; conditions: Enterobacter cloacae, 8; clinical strain, 18 h
[26] = test system: E. coli 520; experiment: MIC, twofold microdilution, clinical strain; format: cell-based; conditions: Escherichia coli, 18 h
[27] = test system: S. aureus ATCC 6538; experiment: MIC, twofold microdilution, standard strain; format: cell-based, Staphylococcus aureus; conditions: Staphylococcus aureus, ATCC6538; standard strain, 18 h
[28] = test system: S. aureus T5595; experiment: MIC, twofold microdilution, clinical strain; format: cell-based, Staphylococcus aureus; conditions: for MIC: Staphylococcus aureus, T5595, 18 h
[29] = test system: PC3 cells; experiment: MTT assay, cytotoxic activity; format: cell-based, human; conditions: Homo sapiens, PC-3, 72 h, MTT, 72 h
Procedure: as §1, with “Metastatic prostate cancer (PC3) and human immortal keratinocyte (HaCaT) cell lines were purchased from the American Type Culture Collection (ATCC, Rockville, MD, USA) and cultured in MEM (minimal essential medium, Thermo Sci, USA), RPMI 1640 (Roswell Park Memorial Institute, Biowest SAS, France), and DMEM (Dulbecco’s Modified Eagle’s Medium, Biowest SAS, France). Cells” for “Cells”

[30] = test system: S. aureus ATCC 25923; experiment: MIC, twofold microdilution, standard strain; format: cell-based; conditions: Staphylococcus aureus, ATCC25923, 18 h
[31] = test system: S. epidermidis 4341; experiment: MIC, twofold microdilution, clinical strain; format: cell-based; conditions: Staphylococcus epidermidis, 18 h
[32] = test system: P. aeruginosa ATCC 15442 and E. coli ATCC 25922; experiment: MIC, standard Gram-negative rods as a panel; format: cell-based; conditions: P. aeruginosa ATCC 15442, E. coli ATCC 25922; read-out: MIC against standard Gram-negative rods (range over strains)
[33] = target: S. aureus DNA gyrase (Staphylococcus aureus, UniProt P0A0K8+P20831); experiment: biochemical; conditions: supercoiling of relaxed pBR322
Procedure: The enzymatic assay was carried using commercial topoisomerases type II as previously described by Alt et al.[55] with some modifications.
Briefly, 1 U of the enzyme (gyrase or topo IV, Inspiralis. Norwich, UK) isolated from S. aureus converts […] of relaxed pBR322 DNA to the supercoiled form (gyrase) or decatenates 200 ng of kinetoplast DNA (topo IV). […] The reactions were terminated by adding an equal volume of STEB buffer (40% sucrose, 100 mM Tris–HCl pH 8, 10 mM EDTA, and 0.5 mg/mL bromophenol blue), followed by extraction with 1 volume of chloroform/isoamyl alcohol (24:1). The samples were vortexed and centrifuged, and 20 μL of the aqueous phase of each sample was loaded onto a 1% agarose gel and left for 30 min prior to electrophoresis to allow diffusion of salt. […] Gels were stained with ethidium bromide and visualized under UV light in a transilluminator (ChemiDoc MP, Bio Rad).

[34] = target: T1, S. aureus topoisomerase IV (Staphylococcus aureus, UniProt P0C1S7+P0C1U9); experiment: Topoisomerase IV decatenation assay; format: biochemical; conditions: decatenation of kinetoplast DNA; read-out: IC50 S. aureus topoisomerase IV (converted)
T1 construct: purchased Inspiralis, Norwich, UK
T1 sequence (P0C1U9 whole entry): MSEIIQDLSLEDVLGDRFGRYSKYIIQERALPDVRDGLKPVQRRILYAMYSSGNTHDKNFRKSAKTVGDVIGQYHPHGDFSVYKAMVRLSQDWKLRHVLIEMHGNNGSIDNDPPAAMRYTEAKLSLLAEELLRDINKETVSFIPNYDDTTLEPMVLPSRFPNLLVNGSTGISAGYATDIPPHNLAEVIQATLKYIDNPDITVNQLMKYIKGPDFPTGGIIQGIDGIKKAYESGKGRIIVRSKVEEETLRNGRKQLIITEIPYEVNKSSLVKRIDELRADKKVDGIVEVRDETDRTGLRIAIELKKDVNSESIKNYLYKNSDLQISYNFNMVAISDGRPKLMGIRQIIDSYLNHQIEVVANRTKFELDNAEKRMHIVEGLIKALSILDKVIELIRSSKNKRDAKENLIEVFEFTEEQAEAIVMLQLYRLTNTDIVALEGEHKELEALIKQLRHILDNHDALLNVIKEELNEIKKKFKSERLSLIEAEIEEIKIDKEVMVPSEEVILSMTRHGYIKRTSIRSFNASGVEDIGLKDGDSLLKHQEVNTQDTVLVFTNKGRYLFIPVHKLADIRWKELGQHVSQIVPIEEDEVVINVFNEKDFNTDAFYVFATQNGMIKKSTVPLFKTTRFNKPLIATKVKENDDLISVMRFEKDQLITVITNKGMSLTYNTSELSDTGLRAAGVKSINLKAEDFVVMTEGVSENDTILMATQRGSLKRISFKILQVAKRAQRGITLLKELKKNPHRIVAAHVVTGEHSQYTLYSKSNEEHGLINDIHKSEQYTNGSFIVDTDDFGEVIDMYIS
T1 sequence (P0C1S7 whole entry): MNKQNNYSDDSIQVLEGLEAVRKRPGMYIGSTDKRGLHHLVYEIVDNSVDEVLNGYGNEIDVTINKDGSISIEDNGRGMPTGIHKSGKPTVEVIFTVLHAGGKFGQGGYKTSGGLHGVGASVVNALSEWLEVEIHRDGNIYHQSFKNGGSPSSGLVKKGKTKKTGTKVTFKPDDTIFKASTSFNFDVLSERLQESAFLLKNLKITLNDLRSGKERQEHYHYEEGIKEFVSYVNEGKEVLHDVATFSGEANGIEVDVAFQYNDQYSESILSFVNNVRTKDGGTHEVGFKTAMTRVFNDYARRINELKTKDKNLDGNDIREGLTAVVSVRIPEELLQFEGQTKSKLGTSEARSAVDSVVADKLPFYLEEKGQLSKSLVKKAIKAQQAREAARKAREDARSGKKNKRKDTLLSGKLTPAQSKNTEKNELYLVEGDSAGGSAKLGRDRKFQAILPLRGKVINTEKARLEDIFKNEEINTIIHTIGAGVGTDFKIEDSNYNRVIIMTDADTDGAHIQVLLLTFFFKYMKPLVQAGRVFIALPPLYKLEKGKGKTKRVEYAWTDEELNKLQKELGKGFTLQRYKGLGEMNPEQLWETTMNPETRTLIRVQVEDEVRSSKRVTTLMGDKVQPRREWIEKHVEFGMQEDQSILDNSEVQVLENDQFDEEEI
Procedure: Briefly, 1 U of the enzyme (gyrase or topo IV, Inspiralis. Norwich, UK) isolated from S. aureus converts 0.5 mg of relaxed pBR322 DNA to the supercoiled form (gyrase) or decatenates 200 ng of kinetoplast DNA (topo IV). […] The reactions were terminated by adding an equal volume of STEB buffer (40% sucrose, 100 mM Tris–HCl pH 8, 10 mM EDTA, and 0.5 mg/mL bromophenol blue), followed by extraction with 1 volume of chloroform/isoamyl alcohol (24:1). The samples were vortexed and centrifuged, and 20 μL of the aqueous phase of each sample was loaded onto a 1% agarose gel and left for 30 min prior to electrophoresis to allow diffusion of salt. […] Gels were stained with ethidium bromide and visualized under UV light in a transilluminator (ChemiDoc MP, Bio Rad).

Sequence of S. aureus DNA gyrase (P0A0K8 whole entry): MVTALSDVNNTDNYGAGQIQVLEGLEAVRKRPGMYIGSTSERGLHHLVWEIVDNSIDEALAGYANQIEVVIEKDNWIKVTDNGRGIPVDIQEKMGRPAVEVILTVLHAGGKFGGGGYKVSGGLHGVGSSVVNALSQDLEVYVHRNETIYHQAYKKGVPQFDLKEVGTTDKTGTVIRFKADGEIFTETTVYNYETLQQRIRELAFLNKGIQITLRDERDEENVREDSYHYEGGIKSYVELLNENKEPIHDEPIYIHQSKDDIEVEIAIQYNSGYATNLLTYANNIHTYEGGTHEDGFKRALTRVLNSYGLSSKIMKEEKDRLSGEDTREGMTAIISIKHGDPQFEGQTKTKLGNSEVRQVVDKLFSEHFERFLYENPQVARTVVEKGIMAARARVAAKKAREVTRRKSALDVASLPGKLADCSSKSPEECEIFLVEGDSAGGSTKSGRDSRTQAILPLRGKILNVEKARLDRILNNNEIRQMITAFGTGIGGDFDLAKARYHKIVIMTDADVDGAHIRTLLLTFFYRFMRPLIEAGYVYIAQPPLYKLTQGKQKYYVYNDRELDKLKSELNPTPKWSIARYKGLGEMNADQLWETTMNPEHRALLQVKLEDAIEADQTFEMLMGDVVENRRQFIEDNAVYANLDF
Sequence of S. aureus DNA gyrase (P20831 whole entry): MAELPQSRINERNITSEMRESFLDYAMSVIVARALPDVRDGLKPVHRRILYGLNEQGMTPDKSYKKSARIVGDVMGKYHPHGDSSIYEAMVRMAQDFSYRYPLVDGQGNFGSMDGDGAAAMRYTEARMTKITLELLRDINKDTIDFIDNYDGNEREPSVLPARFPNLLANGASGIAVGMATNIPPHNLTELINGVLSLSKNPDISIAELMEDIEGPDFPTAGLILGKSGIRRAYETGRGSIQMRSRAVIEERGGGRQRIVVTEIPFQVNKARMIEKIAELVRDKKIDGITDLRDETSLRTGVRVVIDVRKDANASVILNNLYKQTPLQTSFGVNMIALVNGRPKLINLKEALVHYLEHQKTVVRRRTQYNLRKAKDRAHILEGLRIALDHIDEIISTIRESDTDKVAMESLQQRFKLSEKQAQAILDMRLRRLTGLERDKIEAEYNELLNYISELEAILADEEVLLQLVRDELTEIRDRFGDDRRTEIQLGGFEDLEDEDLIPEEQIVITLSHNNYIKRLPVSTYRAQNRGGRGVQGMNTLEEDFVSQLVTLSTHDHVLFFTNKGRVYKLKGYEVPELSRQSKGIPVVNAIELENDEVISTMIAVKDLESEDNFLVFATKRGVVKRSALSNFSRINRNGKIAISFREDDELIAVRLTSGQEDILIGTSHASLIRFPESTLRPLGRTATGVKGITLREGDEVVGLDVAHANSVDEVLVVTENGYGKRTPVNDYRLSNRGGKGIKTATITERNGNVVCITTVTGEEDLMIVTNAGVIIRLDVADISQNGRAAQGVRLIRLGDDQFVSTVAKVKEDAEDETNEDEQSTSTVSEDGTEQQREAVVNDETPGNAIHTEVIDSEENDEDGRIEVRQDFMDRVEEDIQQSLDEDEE

Compound	MIC [1]	MIC [2]	MIC [3]	MIC [4]	MIC [5]	fold more effective than CP [6]	MIC [6]	MIC [7]	MIC [8]	MIC [9]	MIC [11]	MIC [12]	MIC [13]	MIC [14]	IC50 at 72 h [15]	MIC [16]	MIC [18]	MIC [19]	MIC S. epidermidis 5253 [20]	MIC [20]	also measured
O=C(O)c1cn(C2CC2)c2cc(N3CCN(C(=O)CCCl)CC3)c(F)cc2c1=O [Compound 4, 7-[4-(3-Chloropropionyl)-piperazin-1-yl]-1-cyclopropyl-6-fluoro-4-oxo-1,4-dihydro-quinoline-3-carboxylic Acid]	> 25.6 µg/mL	1 µg/mL (≈ 2.37 µM)	0.2 µg/mL (≈ 0.474 µM)	0.2 µg/mL (≈ 0.474 µM)	0.2 µg/mL (≈ 0.474 µM)	2.5 fold	0.1 to 0.8 µg/mL (≈ 0.237 to 1.9 µM)	> 25.6 µg/mL	0.8 µg/mL (≈ 1.9 µM)	0.2 µg/mL (≈ 0.474 µM)	12.8 µg/mL (≈ 30.3 µM)	2 µg/mL (≈ 4.74 µM)	> 25.6 µg/mL	0.2 µg/mL (≈ 0.474 µM)	> 100 µM	> 25.6 µg/mL	0.2 µg/mL (≈ 0.474 µM)	3.2 µg/mL (≈ 7.59 µM)	25.6 µg/mL (≈ 60.7 µM)	12.8 to 25.6 µg/mL (≈ 30.3 to 60.7 µM)	share of the reference (CP) activity ([6]; S. aureus T5595 and T5591): 62.5%; fold more effective than the reference tuberculostatics [10]: 8–32 fold; MIC ([17]; standard Gram-positive strains of Table 1): 0.1 to 0.8 µg/mL (≈ 0.237 to 1.9 µM); MIC [21]: 25.6 µg/mL (≈ 60.7 µM); MIC [22]: 0.2 µg/mL (≈ 0.474 µM); MIC [23]: 0.4 µg/mL (≈ 0.948 µM); MIC [24]: 0.2 µg/mL (≈ 0.474 µM); MIC [25]: 0.8 µg/mL (≈ 1.9 µM); MIC [26]: 0.8 µg/mL (≈ 1.9 µM); MIC [27]: 0.2 µg/mL (≈ 0.474 µM); MIC [28]: 0.4 µg/mL (≈ 0.948 µM); IC50 [29]: 51.6 ± 8.1 µM; MIC [30]: 0.4 µg/mL (≈ 0.948 µM); MIC [31]: 6.4 µg/mL (≈ 15.2 µM)
O=C(O)c1cn(C2CC2)c2cc(N3CCN(C(=O)CCCCCl)CC3)c(F)cc2c1=O [Compound 6, 7-[4-(5-Chloropentanoyl)-piperazin-1-yl]-1-cyclopropyl-6-fluoro-4-oxo-1,4-dihydro-quinoline-3-carboxylic Acid]	> 25.6 µg/mL	0.5 µg/mL (≈ 1.11 µM)	0.1 µg/mL (≈ 0.222 µM)	0.2 µg/mL (≈ 0.445 µM)	0.2 µg/mL (≈ 0.445 µM)	5 fold	0.1 to 0.8 µg/mL (≈ 0.222 to 1.78 µM)	12.8 µg/mL (≈ 28.5 µM)	0.4 µg/mL (≈ 0.889 µM)	0.2 µg/mL (≈ 0.445 µM)	1.6 µg/mL (≈ 3.56 µM)	0.5 µg/mL (≈ 1.11 µM)	6.4 µg/mL (≈ 14.2 µM)	0.1 µg/mL (≈ 0.222 µM)	19.7 ± 2.8 µM	> 25.6 µg/mL	0.2 µg/mL (≈ 0.445 µM)	0.2 µg/mL (≈ 0.445 µM)	12.8 µg/mL (≈ 28.5 µM)	12.8 to 25.6 µg/mL (≈ 28.5 to 56.9 µM)	times more powerful than CP ([6]; S. aureus T5595 and T5591): 1.25–2.5 times; MIC [32]: ≤ 1 µg/mL; MIC [17]: 0.1 to 0.8 µg/mL (≈ 0.222 to 1.78 µM); MIC [21]: 12.8 µg/mL (≈ 28.5 µM); MIC [22]: 0.2 µg/mL (≈ 0.445 µM); IC50 [33]: 12 µM; MIC S. aureus T5591 ([23]; 18 h): 0.2 µg/mL (≈ 0.445 µM); MIC [23]: 0.1 to 0.2 µg/mL (≈ 0.222 to 0.445 µM); MIC [24]: 0.2 µg/mL (≈ 0.445 µM); MIC [25]: 0.8 µg/mL (≈ 1.78 µM); MIC [26]: 0.4 µg/mL (≈ 0.889 µM); MIC [27]: 0.2 µg/mL (≈ 0.445 µM); MIC S. aureus T5595 ([28]; 18 h): 0.2 µg/mL (≈ 0.445 µM); MIC [28]: 0.1 to 0.2 µg/mL (≈ 0.222 to 0.445 µM); IC50 [29]: 108 ± 11 µM; MIC [30]: 0.2 µg/mL (≈ 0.445 µM); IC50 [34]: 17.8 µM; MIC [31]: 6.4 µg/mL (≈ 14.2 µM)
